Source: PubChem BioAssay (NCI)
“And” between values parts separate entries of the source, which are not always exact repeats. Equal entries are not always repeated.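 These data come from cells grown in 96-well plates and exposed to compound for 48 hours at five concentrations. Abbreviation: GI50, concentration required for 50% inhibition of growth. At the TGI there is no net growth.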

What was measured:
Assay in all cases: NCI tumour cell line growth inhibition, 48 h
HCT-116 colon = test system: HCT-116 colon
HOP-62 NSCLC = test system: HOP-62 NSCLC
MALME-3M melanoma = test system: MALME-3M melanoma
MDA-MB-435 = test system: MDA-MB-435
NCI-H23 lung = test system: NCI-H23 lung
OVCAR-3 ovarian = test system: OVCAR-3 ovarian
OVCAR-8 ovarian = test system: OVCAR-8 ovarian
SNB-19 CNS = test system: SNB-19 CNS
SW-620 colon = test system: SW-620 colon
UO-31 renal = test system: UO-31 renal

SMILES	TGI (HCT-116 colon)	TGI (HOP-62 NSCLC)	TGI (MALME-3M melanoma)	TGI (MDA-MB-435)	TGI (NCI-H23 lung)	TGI (OVCAR-3 ovarian)	TGI (OVCAR-8 ovarian)	TGI (SNB-19 CNS)	TGI (SW-620 colon)	TGI (UO-31 renal)	GI50 (HCT-116 colon)	GI50 (HOP-62 NSCLC)	GI50 (MALME-3M melanoma)	GI50 (MDA-MB-435)	GI50 (NCI-H23 lung)	GI50 (OVCAR-3 ovarian)	GI50 (OVCAR-8 ovarian)	GI50 (SNB-19 CNS)	GI50 (SW-620 colon)	GI50 (UO-31 renal)
CC1CN(CCO)CC(C)O1 (centres undefined)	> 100 µM	> 100 µM	> 100 µM	> 100 µM	> 100 µM	> 100 µM	> 100 µM	> 100 µM	> 100 µM	> 100 µM	–	–	–	–	–	–	–	–	–	–
COc1ccc(C(=O)/C=C/c2ccc(Cl)cc2)cc1S(N)(=O)=O	2.7 µM	8.62 µM	20.2 µM	15.6 µM	7.06 µM	4.45 µM	10.2 µM	10.3 µM	3.85 µM	5.76 µM	1.36 µM	2.51 µM	5.89 µM	4.34 µM	2.54 µM	2.04 µM	3.55 µM	3.1 µM	1.76 µM	1.89 µM
COc1ccc([C@H]2c3cc(OC)c(OC)cc3C=C(C=O)C2CO)cc1OC (some centres undefined)	> 100 µM	> 100 µM	7.43 µM	2.81 µM	> 100 µM	4.87 µM	> 100 µM	> 100 µM	> 100 µM	> 100 µM	5.32 µM	4.79 µM	1.84 µM	0.914 µM	7.15 µM	2.09 µM	6.9 µM	8.56 µM	3.49 µM	3.6 µM
CC(C)(O)Cn1c(=O)c(Oc2ccc(F)cc2F)cc2cnc(NC3CCOCC3)nc21	> 25 µM	> 25 µM	> 25 µM	> 25 µM	> 25 µM	> 25 µM	> 25 µM	> 25 µM	> 25 µM	> 25 µM	> 25 µM	> 25 µM	> 25 µM	> 25 µM	> 25 µM	> 25 µM	> 25 µM	> 25 µM	> 25 µM	> 25 µM
Cc1cc(O)c2c(c1)C[C@@H](O)C1=C2C(=O)c2c(O)ccc(OC3CC(O)C(OC4CC(OC5CCC(OC6CC(O)C(OC7CC(OC8CCC(O)C(C)O8)C(O)C(C)O7)C(C)O6)C(C)O5)C(O)C(C)O4)C(C)O3)c2C1=O (some centres undefined)	–	–	–	0.182 µM and 0.344 µM and 0.376 µM	–	0.138 µM and 0.765 µM	–	0.335 µM and 2.88 µM and 2.67 µM	–	–	0.38 µM and 0.281 µM	1.97 µM and 2.76 µM	1 µM and 0.197 µM	0.198 µM and 0.204 µM	0.343 µM and 0.8 µM	0.223 µM	0.364 µM	1.41 µM and 1.24 µM	0.362 µM and 0.216 µM	1.39 µM and 1.3 µM
O=C1CCC/C=C\C[C@H]2C=C(Cl)C(=O)/C2=C/C[C@H](CCCCC(F)(F)F)OC(=O)CCC/C=C\C[C@H]2C=C(Cl)C(=O)/C2=C/C[C@H](CCCCC(F)(F)F)O1	0.43 µM	1.46 µM	0.694 µM	0.307 µM	0.868 µM	0.485 µM	1.09 µM	1.67 µM	0.659 µM	0.281 µM	0.157 µM	0.274 µM	0.21 µM	0.147 µM	0.236 µM	0.19 µM	0.231 µM	0.353 µM	0.237 µM	0.133 µM
CCOP1(=O)OCC2OC(n3cnc4c(N)ncnc43)C(O)C2O1 (centres undefined)	> 100 µM	> 100 µM	> 100 µM	> 100 µM	–	> 100 µM	> 100 µM	> 100 µM	> 100 µM	> 100 µM	–	–	–	–	–	–	–	–	–	–
Cc1cc(Cl)n2c(nc3ccccc32)c1C#N	1.4 µM	3.45 µM	2.63 µM	1.6 µM	2.55 µM	1.86 µM	11.9 µM	15.6 µM	1.79 µM	1.68 µM	0.0393 µM	0.572 µM	0.858 µM	0.327 µM	0.422 µM	0.583 µM	0.597 µM	2.44 µM	0.055 µM	0.333 µM
Cc1ncc(C(=O)Nc2ccc(CN3CCN(C)CC3)c(C(F)(F)F)c2)cc1C#Cc1c(N)ncc2ccc(C#N)cc12	5.94 µM	11.2 µM	0.157 µM	3.31 µM	8.58 µM	8.54 µM	21.2 µM	15.6 µM	10.3 µM	4.99 µM	0.24 µM	0.988 µM	0.0167 µM	0.163 µM	0.936 µM	1.57 µM	4.77 µM	6.71 µM	0.661 µM	1.26 µM
CCCCc1ccc2nc(NC(=O)OC)[nH]c2c1	13.5 µM	26.6 µM	23.7 µM	0.0379 µM	> 100 µM	0.0502 µM	> 52.9 µM	> 100 µM	> 60.5 µM	> 100 µM	0.0482 µM	0.126 µM	0.0526 µM	0.0148 µM	0.142 µM	0.0228 µM	0.0837 µM	0.0487 µM	0.0325 µM	12.1 µM
Cc1c2c(n3c(nc4ccccc43)c1C#N)SCC2	> 10 µM	> 10 µM	> 10 µM	> 10 µM	> 10 µM	> 10 µM	> 10 µM	> 10 µM	> 10 µM	> 10 µM	–	–	–	–	–	–	–	–	–	–
O=C(Nc1nc2ncn(CCOC(=O)c3ccccc3)c2c(=O)[nH]1)c1ccccc1	> 100 µM	> 100 µM	> 100 µM	8.32 µM	> 100 µM	> 100 µM	> 100 µM	> 100 µM	> 100 µM	> 100 µM	–	–	–	–	–	–	–	–	–	–
COC1CC(OC2OC(CO)C(O)C(O)C2O)/C(=C\C#N)C(O)C1OC (centres undefined)	> 100 µM	> 100 µM	> 100 µM	> 100 µM	> 100 µM	> 100 µM	> 100 µM	> 100 µM	> 100 µM	> 100 µM	–	–	–	–	–	–	–	–	–	–
O=c1c(Cl)nsnc1Cl	20.5 µM	34.5 µM	84.5 µM	28.1 µM	50.5 µM	17.1 µM	> 91.6 µM	49.1 µM	31.5 µM	74.5 µM	–	–	–	–	–	–	–	–	–	–
COc1c(O)c2ccccc2c2cc(O)ccc12	13.8 µM	31.3 µM	3.18 µM	2.3 µM	10.6 µM	19.2 µM	15.4 µM	28.2 µM	6.69 µM	11.4 µM	–	–	–	–	–	–	–	–	–	–
Clc1ccc(Cl)c(N/N=C\c2c[nH]c3ccccc23)c1	27.9 µM	28.4 µM	39.8 µM	28.1 µM	29.9 µM	26.1 µM	29.4 µM	29.4 µM	24.6 µM	18.4 µM	14.8 µM	15.2 µM	20.3 µM	12.2 µM	14.1 µM	11.4 µM	14.9 µM	13.2 µM	10.3 µM	3.7 µM
CC/C(=C(\c1ccccc1)c1ccc(OCCN(C)C)cc1)c1ccccc1	–	–	–	–	–	–	–	–	–	–	2.25 µM	–	1.91 µM	2.66 µM	3.68 µM	2.84 µM	5.35 µM	–	2.95 µM	5.73 µM
Cc1cc2c(-c3nc4ccccc4[nH]3)c(O)c(O)cc2c(O)c1-c1c(C)cc2c(-c3nc4ccccc4[nH]3)c(O)c(O)cc2c1O	3.29 µM	0.864 µM	2.26 µM	18.3 µM	1.07 µM	15.1 µM	> 50 µM	9.62 µM	> 22 µM	0.218 µM	0.00866 µM	0.0717 µM	0.0321 µM	0.0248 µM	0.0289 µM	0.0411 µM	0.0664 µM	0.0202 µM	0.0209 µM	0.042 µM
C#Cc1cccc(NC(=O)Nc2ccccc2NC(=O)CCl)c1	> 82.5 µM	> 82.5 µM	56.7 µM	31.5 µM	48.5 µM	25.5 µM	> 82.5 µM	> 82.5 µM	45.2 µM	21.6 µM	24.5 µM	25.9 µM	19.5 µM	15 µM	16.9 µM	13.5 µM	27.1 µM	32 µM	19.3 µM	11.1 µM
COc1ccc(CN2CCc3c(Cl)nc(N)nc3C2=O)c(OC)c1	29.9 µM	63.9 µM	44.2 µM	39.5 µM	32.2 µM	29.8 µM	> 100 µM	33.3 µM	28.1 µM	43.8 µM	16.1 µM	25.7 µM	15.8 µM	16.4 µM	15.8 µM	15.4 µM	26.9 µM	15.8 µM	13.6 µM	14 µM
O=C(Nc1ccc(Cl)cc1)NS(=O)(=O)c1ccc2c(c1)CCC2	> 67.3 µM and 27.9 µg/mL	> 100 µM	> 71.3 µM and 38.2 µg/mL	48.3 µM	> 56 µM and 36.3 µg/mL	73.8 µM and 21.4 µg/mL	> 100 µM and 44.2 µg/mL	> 100 µM and 53.5 µg/mL	> 100 µM and 33.6 µg/mL	> 76.3 µM and 42 µg/mL	8.93 µg/mL	–	13.7 µg/mL	–	15.6 µg/mL	5.61 µg/mL	18.8 µg/mL	18.6 µg/mL	10.6 µg/mL	21.5 µg/mL
CCc1cc(C(N)=O)ccc1-n1nc(C(C)C)c2c(-n3cnc(-c4cnn(C)c4)c3)ccnc21	> 100 µM	> 100 µM	> 31.3 µM	> 100 µM	> 100 µM	> 100 µM	> 100 µM	> 100 µM	> 100 µM	> 100 µM	0.554 µM	7.92 µM	1.05 µM	0.719 µM	1.14 µM	2.37 µM	3.72 µM	3.3 µM	0.536 µM	3.25 µM
C=C1C(=O)O[C@@H]2[C@@H]3O[C@@](C)(CC/C=C(\C)CCC[C@@H]2C)[C@H](O)C[C@@H]13	2.87 µM	24 µM	4.11 µM	5.47 µM	16.5 µM	3.34 µM	5.85 µM	28.6 µM	3.96 µM	2.93 µM	1.49 µM	–	1.76 µM	1.89 µM	3.71 µM	1.7 µM	1.76 µM	14.6 µM	2.03 µM	1.4 µM
CCN(CC)CCn1c(=N)n(CC(O)c2ccc(Cl)c(Cl)c2)c2ccccc21 (centres undefined)	16.4 µM	24.8 µM	4.44 µM	3.49 µM	32.5 µM	24 µM	25.5 µM	28.8 µM	24.8 µM	20.4 µM	4.47 µM	11.8 µM	2.23 µM	1.75 µM	15 µM	11.5 µM	12.1 µM	13.5 µM	11 µM	6.97 µM
COc1ccc(C2SC(N)=Nc3c2c(C)nn3C(=O)c2ccncc2)cc1 (centres undefined)	> 100 µM	> 100 µM	> 100 µM	> 100 µM	> 100 µM	> 100 µM	> 100 µM	> 100 µM	> 100 µM	> 100 µM	–	–	–	–	–	–	–	–	–	–
Cc1ccc(CCC(=O)Nc2ncc(Cc3cc(Cl)ccc3Cl)s2)o1	2.14 µM	15.1 µM	> 100 µM	0.0949 µM	> 37.7 µM	1.36 µM	> 26.1 µM	5.45 µM	> 100 µM	6.43 µM	0.0696 µM	0.38 µM	0.945 µM	0.0286 µM	0.471 µM	0.172 µM	0.432 µM	0.33 µM	0.0694 µM	0.594 µM
CN(NC(=O)/C(=C/c1ccc(O)cc1)NC(=O)c1ccccc1)c1ccnc2cc(Cl)ccc12	38.2 µM	30.1 µM	39.8 µM	32.3 µM	–	31.2 µM	47 µM	32.6 µM	47.2 µM	18.6 µM	–	–	–	–	–	–	–	–	–	–
FC(F)(F)c1ccc2nc(-c3nc(-c4ccccc4)n4ccccc34)[nH]c2c1	–	9.26 µM	9.02 µM	31.6 µM	14.7 µM	16.3 µM	7.68 µM	20.8 µM	23.6 µM	18.6 µM	–	2.46 µM	2.71 µM	5.47 µM	3.21 µM	4.08 µM	2.7 µM	6.44 µM	3.17 µM	4.37 µM
